According to patent US20030232102A1, “Total glycosides of paeony, method to prepare the same and uses thereof” (priority 2001, published 2003):

Tested on: patients with rheumatoid arthritis
Test: Phase II clinical study in rheumatoid arthritis: effectiveness (symptoms, physical examination, comprehensive evaluation)
Assay type: in vivo, human
Design: ESR Reduced to norm., % of cases / CRP Reduced to Norm., % of cases / RF Reduced to norm., % of cases: concentration or dose not given beside the values
Procedure: It was a multiple-centered, randomized, parallel, positive controlled Phrase II clinical study.
All clinical studies except the above mentioned 120 cases were conducted in a single-blind condition.
1) Age 18˜65, male or female who agreed to the investigational treatment for 12 weeks to 6 months. History of rheumatoid arthritis was within 3 years.
2) Documented Rheumatoid Arthritis based on a diagnostic criteria of 1987 Revised ARA Criteria for the Classification of Rheumatoid Arthritis
3) Diagnosis of a typical active stage of RA: A patient is said to be on an active stage of RA if he or she has satisfied at least 4 of the following 5 items.
2) Patient who quitted the treatment for the ineffectiveness 7 days after the start of administration was included in the efficacy analysis. Patient who quitted the treatment for the side effects was not included in the efficacy analysis but the safety analyses.
1) The placebo run-in period: Seven days before administration, the selected patients stopped using NSAIDs and took a placebo instead.
4) For the double-blinded study, patients in both groups would be given capsules and tablets in same shapes, odors and amount. Placebo of capsule or tablet were included. Neither doctors nor patients can tell the group of treatment from the other.
5) No analgesics, anti-inflammation drugs, immune regulatory agents or muscle relaxants were allowed during the period of study. Acetaminophen could be used when necessary. If a physical therapy was started before enrollment, it was allowed to be continued, yet, it should be taken all the way during the period of clinical study.
1) Pain at rest: patients were asked to scale the degree of pain with a ruler [drawing 1]
2) Morning stiffness: Patients were requested to make notes on duration of their morning joint stiffness, a time span from its appearance to recovery in minutes every morning. The doctors should evaluate their record sheets by questioning them. For example “Do you fell stiff in any of your joints? (today, these 2 days)” When get a “yes” in answer, then “when did you get up today?” and “when does the stiffness be gone?”
3) Swelling of joints: Take count of the index of joint swelling by summing up the degree number of each joint.
0=normal; 1=swelling soft tissues (synovium) without hydrarthrus; 2=swelling soft tissues (synovium) with hydrarthrus.
4) Tenderness of joints: Take count of the index of joint tenderness by summing up the degree number of each joint:
5) Grip strength: Fold the arm belt of a sphygmomanometer twice and seal it in a small cloth bag suitable for a hand to hold. Aerates the belt in pressure of 20 mm Hg. Patients were asked to grip the bag with their not braced left and right hand, the grip strength is the average pressures in mm Hg for three times.
6) Time consumed for a 15 meters' walk (Seconds): Time started from a calm standing to the final of 15 meters. The average of three times.
7) General joint function (criteria of ARA):
8) Self-scoring and physician's grading on disease conditions: Both patients and doctors were required to submit their score sheet every time on follow-up survey. The scoring was made upon following criteria:
9) Patient's general condition: condition on the physical strength, sleep and appetite.
No effect: less than 30% improvement in symptoms and physical signs.
Improved: About 50% improvement in symptoms and physical signs (including general conditions in physical strength, sleep and appetite).

CN(Cc1cnc2nc(N)nc(N)c2n1)c1ccc(C(=O)N[C@@H](CCC(=O)O)C(=O)O)cc1 [MTX, Methotrexate]
MR Disappeared, cases (double blinded, 12 weeks): 15
NSJ 50% reduced, % of cases (double blinded, 12 weeks): 56.7%
NSJ 50% reduced, cases (double blinded, 12 weeks): 34
NSJ Disappeared, % of cases (double blinded, 12 weeks): 26.7%
NSJ Disappeared, cases (double blinded, 12 weeks): 16
RF 2 dilutions lower, % of cases (double blinded, 12 weeks): 36.7%
RF 2 dilutions lower, cases (double blinded, 12 weeks): 22
RF Reduced to norm., cases (double blinded, 12 weeks): 0
AGS 50% increased, % of cases (overall group, 4 weeks): 7.5%
AGS 50% increased, cases (overall group, 4 weeks): 19
CRP 50% reduced, % of cases (overall group, 4 weeks): 13.4%
CRP 50% reduced, cases (overall group, 4 weeks): 19
CRP Reduced to Norm., % of cases (overall group, 4 weeks): 4.9%
CRP Reduced to Norm., cases (overall group, 4 weeks): 7
ESR 50% reduced, % of cases (overall group, 4 weeks): 41.6%
ESR 50% reduced, cases (overall group, 4 weeks): 59
ESR Reduced to norm., % of cases (overall group, 4 weeks): 15.5%
ESR Reduced to norm., cases (overall group, 4 weeks): 22
ITJ 50% reduced, % of cases (overall group, 4 weeks): 19.0%
ITJ 50% reduced, cases (overall group, 4 weeks): 27
ITJ Disappeared, % of cases (overall group, 4 weeks): 2.8%
ITJ Disappeared, cases (overall group, 4 weeks): 4
MR 50% reduced, % of cases (overall group, 4 weeks): 45.8%
MR 50% reduced, cases (overall group, 4 weeks): 65
MR Disappeared, % of cases (overall group, 4 weeks): 9.8%
MR Disappeared, cases (overall group, 4 weeks): 14
NSJ 50% reduced, % of cases (overall group, 4 weeks): 48.6%
NSJ 50% reduced, cases (overall group, 4 weeks): 69
NSJ Disappeared, % of cases (overall group, 4 weeks): 10.6%
NSJ Disappeared, cases (overall group, 4 weeks): 15
RF 2 dilutions lower, % of cases (overall group, 4 weeks): 49.3%
RF 2 dilutions lower, cases (overall group, 4 weeks): 70
RF Reduced to norm., % of cases (overall group, 4 weeks): 4.9%
RF Reduced to norm., cases (overall group, 4 weeks): 7
AGS 50% increased, % of cases (overall group, 8 weeks): 16.7%
AGS 50% increased, cases (overall group, 8 weeks): 23
CRP 50% reduced, % of cases (overall group, 8 weeks): 17.6%
CRP 50% reduced, cases (overall group, 8 weeks): 25
CRP Reduced to Norm., % of cases (overall group, 8 weeks): 12.7%
CRP Reduced to Norm., cases (overall group, 8 weeks): 18
ESR 50% reduced, cases (overall group, 8 weeks): 80
ESR Reduced to norm., % of cases (overall group, 8 weeks): 18.3%
ESR Reduced to norm., cases (overall group, 8 weeks): 26
ITJ 50% reduced, % of cases (overall group, 8 weeks): 34.5%
ITJ 50% reduced, cases (overall group, 8 weeks): 49
ITJ Disappeared, % of cases (overall group, 8 weeks): 3.5%
ITJ Disappeared, cases (overall group, 8 weeks): 5
MR 50% reduced, % of cases (overall group, 8 weeks): 52.1%
MR 50% reduced, cases (overall group, 8 weeks): 74
MR Disappeared, % of cases (overall group, 8 weeks): 19.7%
MR Disappeared, cases (overall group, 8 weeks): 28
NSJ 50% reduced, % of cases (overall group, 8 weeks): 51.4%
NSJ 50% reduced, cases (overall group, 8 weeks): 73
NSJ Disappeared, % of cases (overall group, 8 weeks): 16.9%
NSJ Disappeared, cases (overall group, 8 weeks): 24
RF 2 dilutions lower, % of cases (overall group, 8 weeks): 59.9%
RF 2 dilutions lower, cases (overall group, 8 weeks): 85
RF Reduced to norm., % of cases (overall group, 8 weeks): 9.2%
RF Reduced to norm., cases (overall group, 8 weeks): 13
AGS 50% increased, % of cases (overall group, 12 weeks): 29.5%
AGS 50% increased, cases (overall group, 12 weeks): 42
CRP 50% reduced, % of cases (overall group, 12 weeks): 23.2%
CRP 50% reduced, cases (overall group, 12 weeks): 33
CRP Reduced to Norm., % of cases (overall group, 12 weeks): 17.6%
CRP Reduced to Norm., cases (overall group, 12 weeks): 25
ESR 50% reduced, cases (overall group, 12 weeks): 76
ESR Reduced to norm., % of cases (overall group, 12 weeks): 21.8%
ESR Reduced to norm., cases (overall group, 12 weeks): 31
ITJ 50% reduced, % of cases (overall group, 12 weeks): 50.7%
ITJ 50% reduced, cases (overall group, 12 weeks): 72
ITJ Disappeared, % of cases (overall group, 12 weeks): 6.3%
ITJ Disappeared, cases (overall group, 12 weeks): 9
MR 50% reduced, % of cases (overall group, 12 weeks): 67.6%
MR 50% reduced, cases (overall group, 12 weeks): 96
MR Disappeared, % of cases (overall group, 12 weeks): 11.3%
MR Disappeared, cases (overall group, 12 weeks): 34
NSJ 50% reduced, % of cases (overall group, 12 weeks): 61.3%
NSJ 50% reduced, cases (overall group, 12 weeks): 87
NSJ Disappeared, % of cases (overall group, 12 weeks): 19.0%
NSJ Disappeared, cases (overall group, 12 weeks): 27
RF 2 dilutions lower, % of cases (overall group, 12 weeks): 59.9%
RF 2 dilutions lower, cases (overall group, 12 weeks): 85
RF Reduced to norm., % of cases (overall group, 12 weeks): 11.3%
RF Reduced to norm., cases (overall group, 12 weeks): 16
AGS 50% increased, % of cases (overall group, 24 weeks): 16.7%
AGS 50% increased, cases (overall group, 24 weeks): 10
CRP 50% reduced, % of cases (overall group, 24 weeks): 18.3%
CRP 50% reduced, cases (overall group, 24 weeks): 11
CRP Reduced to Norm., % of cases (overall group, 24 weeks): 40.0%
CRP Reduced to Norm., cases (overall group, 24 weeks): 24
ESR 50% reduced, % of cases (overall group, 24 weeks): 23.3%
ESR 50% reduced, cases (overall group, 24 weeks): 14
ESR Reduced to norm., % of cases (overall group, 24 weeks): 43.3%
ESR Reduced to norm., cases (overall group, 24 weeks): 26
ITJ 50% reduced, % of cases (overall group, 24 weeks): 58.3%
ITJ 50% reduced, cases (overall group, 24 weeks): 35
ITJ Disappeared, % of cases (overall group, 24 weeks): 10.0%
ITJ Disappeared, cases (overall group, 24 weeks): 6
MR 50% reduced, % of cases (overall group, 24 weeks): 50.0%
MR 50% reduced, cases (overall group, 24 weeks): 30
MR Disappeared, % of cases (overall group, 24 weeks): 31.7%
MR Disappeared, cases (overall group, 24 weeks): 19
NSJ 50% reduced, % of cases (overall group, 24 weeks): 46.7%
NSJ 50% reduced, cases (overall group, 24 weeks): 28
NSJ Disappeared, % of cases (overall group, 24 weeks): 26.7%
NSJ Disappeared, cases (overall group, 24 weeks): 16
RF 2 dilutions lower, % of cases (overall group, 24 weeks): 38.3%
RF 2 dilutions lower, cases (overall group, 24 weeks): 23
RF Reduced to norm., % of cases (overall group, 24 weeks): 10.0%
RF Reduced to norm., cases (overall group, 24 weeks): 6
Changes in RA perimeters: GS-L (overall groups, 4 weeks, mean): 12.56
Changes in RA perimeters: GS-R (overall groups, 4 weeks, mean): 11.60
Changes in RA perimeters: ISJ (overall groups, 4 weeks, mean): 3.73
Changes in RA perimeters: ITJ (overall groups, 4 weeks, mean): 6.04
Changes in RA perimeters: MR (overall groups, 4 weeks, mean): 35.76
Changes in RA perimeters: NSJ (overall groups, 4 weeks, mean): 2.10
Changes in RA perimeters: NTJ (overall groups, 4 weeks, mean): 2.61
Changes in RA perimeters: PR (overall groups, 4 weeks, mean): 1.05
Changes in RA perimeters: GS-L (overall groups, 8 weeks, mean): 16.66
Changes in RA perimeters: GS-R (overall groups, 8 weeks, mean): 19.36
Changes in RA perimeters: ITJ (overall groups, 8 weeks, mean): 12.66
Changes in RA perimeters: MR (overall groups, 8 weeks, mean): 54.20
Changes in RA perimeters: NSJ (overall groups, 8 weeks, mean): 4.43
Changes in RA perimeters: NTJ (overall groups, 8 weeks, mean): 5.38
Changes in RA perimeters: PR (overall groups, 8 weeks, mean): 1.94
Changes in RA perimeters: TSJ (overall groups, 8 weeks, mean): 6.59
Changes in RA perimeters: GS-L (overall groups, 12 weeks, mean): 23.06
Changes in RA perimeters: GS-R (overall groups, 12 weeks, mean): 28.10
Changes in RA perimeters: ISJ (overall groups, 12 weeks, mean): 10.25
Changes in RA perimeters: ITJ (overall groups, 12 weeks, mean): 18.77
Changes in RA perimeters: MR (overall groups, 12 weeks, mean): 78.52
Changes in RA perimeters: NSJ (overall groups, 12 weeks, mean): 6.77
Changes in RA perimeters: NTJ (overall groups, 12 weeks, mean): 8.78
Changes in RA perimeters: GS-L (overall groups, 24 weeks, mean): 31.83
Changes in RA perimeters: GS-R (overall groups, 24 weeks, mean): 30.90
Changes in RA perimeters: ISJ (overall groups, 24 weeks, mean): 6.88
Changes in RA perimeters: ITJ (overall groups, 24 weeks, mean): 13.94
Changes in RA perimeters: MR (overall groups, 24 weeks, mean): 60.70
Changes in RA perimeters: NSJ (overall groups, 24 weeks, mean): 5.39
Changes in RA perimeters: NTJ (overall groups, 24 weeks, mean): 9.05
Changes in RA perimeters: PR (overall groups, 24 weeks, mean): 2.62
